# Data as given in patent publication US6737383B1, “Herbicidal oxadiazolidines” (priority 1999, dated 2004).
# Tests used:
# [1] = system: soybean; test: Test B pre/postemergence soybean; type: in vivo, Glycine max
# Summary of the method: (§1)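 Test chemicals in a non-phytotoxic solvent mixture with surfactant were sprayed preemergence onto planted seeds and postemergence onto plants 2 to 18 cm tall (1- to 4-leaf stage). After twelve to sixteen days in a greenhouse, injury was visually rated against untreated controls from 0 (no effect) to 10 (complete control).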
# [2] = system: wild oat; test: Test B pre/postemergence wild oat; type: in vivo, Avena fatua
# Summary of the method: as §1
# [3] = system: rice; test: Test B flood test rice; type: in vivo, Oryza sativa
# Summary of the method: (§2)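 Plants were grown to the 2-leaf stage before treatment with test chemical, then held in a greenhouse for twelve to sixteen days. Injury was visually rated against untreated controls on a 0–10 scale, where 0 is no effect and 10 is complete control.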
# [4] = system: smallflower flatsedge; test: Test B flood test smallflower flatsedge; type: in vivo, Cyperus difformis
# Summary of the method: as §2
# [5] = system: corn; test: Test B pre/postemergence corn; type: in vivo, Zea mays
# Summary of the method: as §1
# [6] = system: cocklebur; test: Test B pre/postemergence cocklebur; type: in vivo, Xanthium strumarium
# Summary of the method: as §1
# [7] = system: blackgrass; test: Test B pre/postemergence blackgrass; type: in vivo, Alopecurus myosuroides
# Summary of the method: as §1
# [8] = system: velvetleaf; test: Test B pre/postemergence velvetleaf; type: in vivo, Abutilon theophrasti
# Summary of the method: as §1
# [9] = system: purple nutsedge; test: Test B pre/postemergence purple nutsedge; type: in vivo, Cyperus rotundus
# Summary of the method: as §1
# [10] = system: bedstraw; test: Test B pre/postemergence bedstraw; type: in vivo, Galium aparine
# Summary of the method: as §1
# [11] = system: giant foxtail; test: Test B pre/postemergence giant foxtail; type: in vivo, Setaria faberii
# Summary of the method: as §1
# [12] = system: sugar beet; test: Test B pre/postemergence sugar beet; type: in vivo, Beta vulgaris
# Summary of the method: as §1
# [13] = system: pigweed; test: Test B pre/postemergence pigweed; type: in vivo, Amaranthus retroflexus
# Summary of the method: as §1
# [14] = system: surinam grass; test: Test B pre/postemergence surinam grass; type: in vivo, Brachiaria decumbens
# Summary of the method: as §1
# [15] = system: crabgrass; test: Test B pre/postemergence crabgrass; type: in vivo, Digitaria sanguinalis
# Summary of the method: as §1
# [16] = system: bamyardgrass; test: Test B flood test barnyardgrass; type: in vivo, Echinochloa crus-galli
# Summary of the method: as §2
# [17] = Preemergence, Rate 62 g/ha, scale of 0 to 10 where 0 is no effect and 10 is complete control
# [18] = Preemergence, Rate 250 g/ha, scale of 0 to 10 where 0 is no effect and 10 is complete control
# [19] = Preemergence, Rate 500 g/ha, scale of 0 to 10 where 0 is no effect and 10 is complete control
# [20] = Rate 62 g/ha, Postemergence, scale of 0 to 10 where 0 is no effect and 10 is complete control
# [21] = Rate 125 g/ha, Postemergence, scale 0 to 10
# [22] = Rate 125 g/ha, Preemergence, scale of 0 to 10 where 0 is no effect and 10 is complete control
# [23] = Rate 500 g/ha, Postemergence, scale 0 to 10, 0 no effect, 10 complete control
# [24] = Rate 62 g/ha, headed Pre-emergence (flood test species), scale 0 to 10 (0 no effect, 10 complete control)
# [25] = Rate 125 g/ha, Pre-emergence, flood test species, scale 0 to 10 where 0 is no effect and 10 is complete control
# [26] = Rate 250 g/ha, Pre-emergence, flood-test species, scale 0 to 10, 0 is no effect, 10 is complete control
# [27] = Rate 500 g/ha, Pre-emergence, flood test species, scale 0 to 10 (0 no effect, 10 complete control)
smiles,measurement,setting,value
Cc1nc(C)c(Cn2c(=O)on(C(=O)N(c3ccc(F)cc3)C(C)C)c2=O)s1 [Compound 232],Soybean plant response rating,[1]; [17],0
same,Soybean plant response rating,[1]; [18],0
same,"Plant response rating, Soybean",[1]; [19],0
same,Soybean plant response rating,[1]; [20],3
same,Soybean plant response rating,[1]; [21],3
same,Soybean plant response rating,[1]; [22],0
same,"Plant response rating (0 to 10; 0 is no effect, 10 is complete control), Soybean","[1]; Rate 250 g/ha, Postemergence",4
same,Soybean plant response rating,[1]; [23],4
same,Wild oats plant response rating,[2]; [17],0
same,Wild oats plant response rating,[2]; [18],3
same,"Plant response rating, Wild oats",[2]; [19],8
same,Wild oats plant response rating,[2]; [20],0
same,Wild oats plant response rating,[2]; [21],0
same,Wild oats plant response rating,[2]; [22],0
same,"Plant response rating (0 to 10; 0 is no effect, 10 is complete control), Wild oats","[2]; Rate 250 g/ha, Postemergence",0
same,Wild oats plant response rating,[2]; [23],0
same,Rice plant response rating,[3]; [24],0
same,Rice plant response rating,[3]; [25],0
same,Rice plant response rating,[3]; [26],0
same,Rice plant response rating,[3]; [27],0
same,S. Flatsedge plant response rating,[4]; [24],0
same,S. Flatsedge plant response rating,[4]; [25],0
same,S. Flatsedge plant response rating,[4]; [26],0
same,S. Flatsedge plant response rating,[4]; [27],0
same,Corn plant response rating,[5]; [17],0
same,Corn plant response rating,[5]; [18],0
same,"Plant response rating, Corn",[5]; [19],0
same,Corn plant response rating,[5]; [20],0
same,Corn plant response rating,[5]; [21],0
same,Corn plant response rating,[5]; [22],0
same,"Plant response rating (0 to 10; 0 is no effect, 10 is complete control), Corn","[5]; Rate 250 g/ha, Postemergence",0
same,Corn plant response rating,[5]; [23],0
same,Cocklebur plant response rating,[6]; [17],0
same,Cocklebur plant response rating,[6]; [18],0
same,"Plant response rating, Cocklebur",[6]; [19],0
same,Cocklebur plant response rating,[6]; [20],0
same,Cocklebur plant response rating,[6]; [21],2
same,Cocklebur plant response rating,[6]; [22],0
same,"Plant response rating (0 to 10; 0 is no effect, 10 is complete control), Cocklebur","[6]; Rate 250 g/ha, Postemergence",2
same,Cocklebur plant response rating,[6]; [23],4
same,Blackgrass plant response rating,[7]; [17],2
same,Blackgrass plant response rating,[7]; [18],8
same,"Plant response rating, Blackgrass",[7]; [19],8
same,Blackgrass plant response rating,[7]; [20],0
same,Blackgrass plant response rating,[7]; [21],2
same,Blackgrass plant response rating,[7]; [22],6
same,"Plant response rating (0 to 10; 0 is no effect, 10 is complete control), Blackgrass","[7]; Rate 250 g/ha, Postemergence",6
same,Blackgrass plant response rating,[7]; [23],7
same,Velvetleaf plant response rating,[8]; [17],0
same,Velvetleaf plant response rating,[8]; [18],0
same,"Plant response rating, Velvetleaf",[8]; [19],0
same,Velvetleaf plant response rating,[8]; [20],2
same,Velvetleaf plant response rating,[8]; [21],2
same,Velvetleaf plant response rating,[8]; [22],0
same,"Plant response rating (0 to 10; 0 is no effect, 10 is complete control), Velvetleaf","[8]; Rate 250 g/ha, Postemergence",2
same,Velvetleaf plant response rating,[8]; [23],3
same,Nutsedge plant response rating,[9]; [17],0
same,Nutsedge plant response rating,[9]; [20],0
same,Nutsedge plant response rating,[9]; [21],0
same,Nutsedge plant response rating,[9]; [22],0
same,"Plant response rating (0 to 10; 0 is no effect, 10 is complete control), Nutsedge","[9]; Rate 250 g/ha, Postemergence",0
same,Nutsedge plant response rating,[9]; [23],0
same,Bedstraw plant response rating,[10]; [17],0
same,Bedstraw plant response rating,[10]; [18],0
same,"Plant response rating, Bedstraw",[10]; [19],0
same,Bedstraw plant response rating,[10]; [20],0
same,Bedstraw plant response rating,[10]; [21],0
same,Bedstraw plant response rating,[10]; [22],0
same,"Plant response rating (0 to 10; 0 is no effect, 10 is complete control), Bedstraw","[10]; Rate 250 g/ha, Postemergence",2
same,Bedstraw plant response rating,[10]; [23],2
same,Giant foxtail plant response rating,[11]; [17],6
same,Giant foxtail plant response rating,[11]; [18],8
same,"Plant response rating, Giant foxtail",[11]; [19],9
same,Giant foxtail plant response rating,[11]; [20],0
same,Giant foxtail plant response rating,[11]; [21],0
same,Giant foxtail plant response rating,[11]; [22],8
same,"Plant response rating (0 to 10; 0 is no effect, 10 is complete control), Giant foxtail","[11]; Rate 250 g/ha, Postemergence",2
same,Giant foxtail plant response rating,[11]; [23],3
same,Sugarbeets plant response rating,[12]; [17],0
same,Sugarbeets plant response rating,[12]; [18],4
same,"Plant response rating, Sugarbeets",[12]; [19],4
same,Sugarbeets plant response rating,[12]; [20],0
same,Sugarbeets plant response rating,[12]; [21],2
same,Sugarbeets plant response rating,[12]; [22],0
same,"Plant response rating (0 to 10; 0 is no effect, 10 is complete control), Sugarbeets","[12]; Rate 250 g/ha, Postemergence",2
same,Sugarbeets plant response rating,[12]; [23],3
same,Redroot pigweed plant response rating,[13]; [17],0
same,Redroot pigweed plant response rating,[13]; [18],5
same,"Plant response rating, Redroot pigweed",[13]; [19],7
same,Redroot pigweed plant response rating,[13]; [20],2
same,Redroot pigweed plant response rating,[13]; [21],3
same,Redroot pigweed plant response rating,[13]; [22],0
same,"Plant response rating (0 to 10; 0 is no effect, 10 is complete control), Redroot pigweed","[13]; Rate 250 g/ha, Postemergence",6
same,Redroot pigweed plant response rating,[13]; [23],4
same,B. signalgrass plant response rating,[14]; [17],0
same,B. signalgrass plant response rating,"[14]; Preemergence, Rate 250 g/ha, scale 0 to 10, 0 is no effect, 10 is complete control",1
same,"Plant response rating, B. signalgrass",[14]; [19],5
same,B. signalgrass plant response rating,[14]; [20],0
same,B. signalgrass plant response rating,"[14]; Rate 125 g/ha, Postemergence, scale 0 (no effect) to 10 (complete control)",0
same,B. signalgrass plant response rating,[14]; [22],0
same,"Plant response rating (0 to 10; 0 is no effect, 10 is complete control), B. signalgrass","[14]; Rate 250 g/ha, Postemergence",1
same,B. signalgrass plant response rating,[14]; [23],8
same,Crabgrass plant response rating,[15]; [17],5
same,Crabgrass plant response rating,[15]; [18],9
same,"Plant response rating, Crabgrass",[15]; [19],10
same,Crabgrass plant response rating,[15]; [20],0
same,Crabgrass plant response rating,[15]; [21],1
same,Crabgrass plant response rating,[15]; [22],7
same,"Plant response rating (0 to 10; 0 is no effect, 10 is complete control), Crabgrass","[15]; Rate 250 g/ha, Postemergence",1
same,Crabgrass plant response rating,[15]; [23],2
same,Barnyardgrass plant response rating,[16]; [24],0
same,Barnyardgrass plant response rating,[16]; [25],0
same,Barnyardgrass plant response rating,[16]; [26],0
same,Barnyardgrass plant response rating,[16]; [27],0
